Reference: the supplement of paper PMC11208160

experiment: recombinant barcode read abundance after kanamycin selection (control-corrected) (log10(CPM+1)); higher = more efficient recombination; sequences stand for … in AGTGCAGAGAAAATCGGCCAGTTTTCTCTGCCTGCAGTCCGCATGCCGT…ATTTATGCAGCGGACTGCCTTTCTCCCAAAGTGATAAACCGGACAGTATCATGGACCGGTTTTCCCGGTAATCCGTATTTGCAAGGTTGGTTTCACT; site = the 11-nt target
Summary of the method: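 Oligos holding a promoter, target, barcode and the J23119-driven first 104 bases of the bridge RNA were Gibson-cloned into a vector that supplied the other 73 bp plus a T7-inducible recombinase. This library was co-electroporated with a donor plasmid into E. coli. Two replicates went on chloramphenicol/ampicillin LB agar (control) and two on chloramphenicol/ampicillin/kanamycin with 0.1 mM IPTG. Recombination efficiency is read from averaged, control-corrected barcode counts per million at recombinant junctions, reported as log10(CPM+1).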

Sequence | recombinant barcode read abundance (log10)
GGGCGTGTGTGGGTTCTAACCTGTTGCCTAG [GGGCGTGCTAG_LTGcore_TG_RTGcore_CT] (site GGGCGTGCTAG) (LTG core: TG, RTG core: CT) | 0.228
GGTGCCCAGTGGGTTCTAACCTGTTGCCGAG [GGTGCCCCTCG_LTGcore_AG_RTGcore_CT] (site GGTGCCCCTCG) (LTG core: AG, RTG core: CT) | 0.202
GGTGCCCCATGGGTTCTAACCTGTTGCCGAG [GGTGCCCCTCG_LTGcore_CA_RTGcore_CT] (site GGTGCCCCTCG) (LTG core: CA, RTG core: CT) | 0.158
GGTGCCCCATGGGTTCTAACCTGTTGCCGTG [GGTGCCCCTCG_LTGcore_CA_RTGcore_CA] (site GGTGCCCCTCG) (LTG core: CA, RTG core: CA) | 0.0735
GGTGCCCCTTGGGTTCTAACCTGTTGCCGTA [GGTGCCCCTCG_LTGcore_CT_RTGcore_TA] (site GGTGCCCCTCG) (LTG core: CT, RTG core: TA) | 0.258
GGTGCCCGATGGGTTCTAACCTGTTGCCGAG [GGTGCCCCTCG_LTGcore_GA_RTGcore_CT] (site GGTGCCCCTCG) (LTG core: GA, RTG core: CT) | 0.0132
GGTGCCCGCTGGGTTCTAACCTGTTGCCGAG [GGTGCCCCTCG_LTGcore_GC_RTGcore_CT] (site GGTGCCCCTCG) (LTG core: GC, RTG core: CT) | 0.0494
GGTGCCCGGTGGGTTCTAACCTGTTGCCGAG [GGTGCCCCTCG_LTGcore_GG_RTGcore_CT] (site GGTGCCCCTCG) (LTG core: GG, RTG core: CT) | 0.0774
GGTGCCCGTTGGGTTCTAACCTGTTGCCGAC [GGTGCCCCTCG_LTGcore_GT_RTGcore_GT] (site GGTGCCCCTCG) (LTG core: GT, RTG core: GT) | 0.151
GGTGCCCTATGGGTTCTAACCTGTTGCCGAG [GGTGCCCCTCG_LTGcore_TA_RTGcore_CT] (site GGTGCCCCTCG) (LTG core: TA, RTG core: CT) | 0.122
GGTGCCCTCTGGGTTCTAACCTGTTGCCGGA [GGTGCCCCTCG_LTGcore_TC_RTGcore_TC] (site GGTGCCCCTCG) (LTG core: TC, RTG core: TC) | 0.0162
GGTGCCCTGTGGGTTCTAACCTGTTGCCGCA [GGTGCCCCTCG_LTGcore_TG_RTGcore_TG] (site GGTGCCCCTCG) (LTG core: TG, RTG core: TG) | 0.15
GGTGCCCTTTGGGTTCTAACCTGTTGCCGAG [GGTGCCCCTCG_LTGcore_TT_RTGcore_CT] (site GGTGCCCCTCG) (LTG core: TT, RTG core: CT) | 0.0486
GTCGCCCATTGGGTTCTAACCTGTTGCTAAG [GTCGCCCCTTA_LTGcore_AT_RTGcore_CT] (site GTCGCCCCTTA) (LTG core: AT, RTG core: CT) | 0.926
GTCGCCCCCTGGGTTCTAACCTGTTGCTAGG [GTCGCCCCTTA_LTGcore_CC_RTGcore_CC] (site GTCGCCCCTTA) (LTG core: CC, RTG core: CC) | 0.416
GTCGCCCCTTGGGTTCTAACCTGTTGCTAAA [GTCGCCCCTTA_LTGcore_CT_RTGcore_TT] (site GTCGCCCCTTA) (LTG core: CT, RTG core: TT) | 0.194
GTCGCCCCTTGGGTTCTAACCTGTTGCTACA [GTCGCCCCTTA_LTGcore_CT_RTGcore_TG] (site GTCGCCCCTTA) (LTG core: CT, RTG core: TG) | 0.151
GTCGCCCCTTGGGTTCTAACCTGTTGCTACC [GTCGCCCCTTA_LTGcore_CT_RTGcore_GG] (site GTCGCCCCTTA) (LTG core: CT, RTG core: GG) | 0.487
GTCGCCCCTTGGGTTCTAACCTGTTGCTACT [GTCGCCCCTTA_LTGcore_CT_RTGcore_AG] (site GTCGCCCCTTA) (LTG core: CT, RTG core: AG) | 0.19
GTCGCCCCTTGGGTTCTAACCTGTTGCTAGG [GTCGCCCCTTA_LTGcore_CT_RTGcore_CC] (site GTCGCCCCTTA) (LTG core: CT, RTG core: CC) | 0.238
GTCGCCCGCTGGGTTCTAACCTGTTGCTAAG [GTCGCCCCTTA_LTGcore_GC_RTGcore_CT] (site GTCGCCCCTTA) (LTG core: GC, RTG core: CT) | 0.224
GTCGCCCTGTGGGTTCTAACCTGTTGCTACA [GTCGCCCCTTA_LTGcore_TG_RTGcore_TG] (site GTCGCCCCTTA) (LTG core: TG, RTG core: TG) | 0.51
TAAGAATAGTGGGTTCTAACCTGTTGCCTAG [TAAGAATCTAG_LTGcore_AG_RTGcore_CT] (site TAAGAATCTAG) (LTG core: AG, RTG core: CT) | 0.079

Sequence | recombinant barcode read abundance (log10)
TAAGAATAGTGGGTTCTAACCTGTTGCCTCT [TAAGAATCTAG_LTGcore_AG_RTGcore_AG] (site TAAGAATCTAG) (LTG core: AG, RTG core: AG) | 0.0922
TAAGAATCTTGGGTTCTAACCTGTTGCCTAA [TAAGAATCTAG_LTGcore_CT_RTGcore_TT] (site TAAGAATCTAG) (LTG core: CT, RTG core: TT) | 0.175
TAAGAATCTTGGGTTCTAACCTGTTGCCTGC [TAAGAATCTAG_LTGcore_CT_RTGcore_GC] (site TAAGAATCTAG) (LTG core: CT, RTG core: GC) | 0.359
TAAGAATGCTGGGTTCTAACCTGTTGCCTAG [TAAGAATCTAG_LTGcore_GC_RTGcore_CT] (site TAAGAATCTAG) (LTG core: GC, RTG core: CT) | 0.216
TAAGAATGGTGGGTTCTAACCTGTTGCCTAG [TAAGAATCTAG_LTGcore_GG_RTGcore_CT] (site TAAGAATCTAG) (LTG core: GG, RTG core: CT) | 0.0162
TAAGAATTATGGGTTCTAACCTGTTGCCTAG [TAAGAATCTAG_LTGcore_TA_RTGcore_CT] (site TAAGAATCTAG) (LTG core: TA, RTG core: CT) | 0
TAAGAATTCTGGGTTCTAACCTGTTGCCTAG [TAAGAATCTAG_LTGcore_TC_RTGcore_CT] (site TAAGAATCTAG) (LTG core: TC, RTG core: CT) | 0.0977
TAAGAATTTTGGGTTCTAACCTGTTGCCTAG [TAAGAATCTAG_LTGcore_TT_RTGcore_CT] (site TAAGAATCTAG) (LTG core: TT, RTG core: CT) | 0.0485
TAGAGGGAATGGGTTCTAACCTGTTGCGGAG [TAGAGGGCTCC_LTGcore_AA_RTGcore_CT] (site TAGAGGGCTCC) (LTG core: AA, RTG core: CT) | 0.247
TAGAGGGACTGGGTTCTAACCTGTTGCGGAG [TAGAGGGCTCC_LTGcore_AC_RTGcore_CT] (site TAGAGGGCTCC) (LTG core: AC, RTG core: CT) | 0.265
TAGAGGGCTTGGGTTCTAACCTGTTGCGGCG [TAGAGGGCTCC_LTGcore_CT_RTGcore_CG] (site TAGAGGGCTCC) (LTG core: CT, RTG core: CG) | 0.972
TAGAGGGCTTGGGTTCTAACCTGTTGCGGGC [TAGAGGGCTCC_LTGcore_CT_RTGcore_GC] (site TAGAGGGCTCC) (LTG core: CT, RTG core: GC) | 1.36
TAGAGGGCTTGGGTTCTAACCTGTTGCGGGG [TAGAGGGCTCC_LTGcore_CT_RTGcore_CC] (site TAGAGGGCTCC) (LTG core: CT, RTG core: CC) | 0.241
TAGAGGGCTTGGGTTCTAACCTGTTGCGGTA [TAGAGGGCTCC_LTGcore_CT_RTGcore_TA] (site TAGAGGGCTCC) (LTG core: CT, RTG core: TA) | 0.144
TAGAGGGGATGGGTTCTAACCTGTTGCGGTC [TAGAGGGCTCC_LTGcore_GA_RTGcore_GA] (site TAGAGGGCTCC) (LTG core: GA, RTG core: GA) | 0.0627
TAGAGGGGCTGGGTTCTAACCTGTTGCGGAG [TAGAGGGCTCC_LTGcore_GC_RTGcore_CT] (site TAGAGGGCTCC) (LTG core: GC, RTG core: CT) | 0.284
TAGAGGGTCTGGGTTCTAACCTGTTGCGGAG [TAGAGGGCTCC_LTGcore_TC_RTGcore_CT] (site TAGAGGGCTCC) (LTG core: TC, RTG core: CT) | 0.506
TAGAGGGTGTGGGTTCTAACCTGTTGCGGCA [TAGAGGGCTCC_LTGcore_TG_RTGcore_TG] (site TAGAGGGCTCC) (LTG core: TG, RTG core: TG) | 0.623
TCGCGACAGTGGGTTCTAACCTGTTGCCGAG [TCGCGACCTCG_LTGcore_AG_RTGcore_CT] (site TCGCGACCTCG) (LTG core: AG, RTG core: CT) | 0.161
TCGCGACCTTGGGTTCTAACCTGTTGCCGAA [TCGCGACCTCG_LTGcore_CT_RTGcore_TT] (site TCGCGACCTCG) (LTG core: CT, RTG core: TT) | 0.666
TCGCGACCTTGGGTTCTAACCTGTTGCCGAG [TCGCGACCTCG_LTGcore_CT_RTGcore_CT] (site TCGCGACCTCG) (LTG core: CT, RTG core: CT) | 1.15
TCGCGACGCTGGGTTCTAACCTGTTGCCGGC [TCGCGACCTCG_LTGcore_GC_RTGcore_GC] (site TCGCGACCTCG) (LTG core: GC, RTG core: GC) | 0.0326
